Laboratory results taken from ChEMBL document CHEMBL4138146, “A Schmidt rearrangement-mediated synthesis of novel tetrahydro-benzo[1,4]diazepin-5-ones as potential anticancer and antiprotozoal agents” (Eur J Med Chem, 2017).

Experiments:
Type in all cases: functional
MDA-MB-468 = test: Growth inhibition of human MDA-MB-468 cells incubated for 48 hrs by sulforhodamine B assay; details: MDA-MB-468, 48 h
CCRF-CEM = test: Growth inhibition of human CCRF-CEM cells incubated for 48 hrs by sulforhodamine B assay
SK-MEL-5 = test: Growth inhibition of human SK-MEL-5 cells incubated for 48 hrs by sulforhodamine B assay; details: SK-MEL-5, 48 h; for CC50: read-out: LC50 (the source's name)
MCF7 = test: Growth inhibition of human MCF7 cells incubated for 48 hrs by sulforhodamine B assay; details: MCF7, 48 h
SN12C = test: Growth inhibition of human SN12C cells incubated for 48 hrs by sulforhodamine B assay
CAKI-1 = test: Growth inhibition of human Caki1 cells incubated for 48 hrs by sulforhodamine B assay; details: CAKI-1, 48 h; for CC50: read-out: LC50 (the source's name)
MDA-MB-231 = test: Growth inhibition of human MDA-MB-231 cells incubated for 48 hrs by sulforhodamine B assay; details: MDA-MB-231, 48 h
HOP-62 = test: Growth inhibition of human HOP62 cells incubated for 48 hrs by sulforhodamine B assay; details: HOP-62, 48 h
LOX IMVI = test: Growth inhibition of human LOXIMVI cells incubated for 48 hrs by sulforhodamine B assay
SNB-19 = test: Growth inhibition of human SNB19 cells incubated for 48 hrs by sulforhodamine B assay; details: SNB-19, 48 h
EKVX = test: Growth inhibition of human EKVX cells incubated for 48 hrs by sulforhodamine B assay
HCT-116 = test: Growth inhibition of human HCT116 cells incubated for 48 hrs by sulforhodamine B assay; details: HCT-116, 48 h
M14 = test: Growth inhibition of human M14 cells incubated for 48 hrs by sulforhodamine B assay; details: M14, 48 h
SF-268 = test: Growth inhibition of human SF268 cells incubated for 48 hrs by sulforhodamine B assay; details: SF-268, 48 h
HCC 2998 = test: Growth inhibition of human HCC2998 cells incubated for 48 hrs by sulforhodamine B assay; details: HCC 2998, 48 h
OVCAR-3 = test: Growth inhibition of human OVCAR3 cells incubated for 48 hrs by sulforhodamine B assay; details: OVCAR-3, 48 h
RXF 393 = test: Growth inhibition of human RXF393 cells incubated for 48 hrs by sulforhodamine B assay; details: RXF 393, 48 h
A549 = test: Growth inhibition of human A549/ATCC cells incubated for 48 hrs by sulforhodamine B assay; details: A549, 48 h
SW-620 = test: Growth inhibition of human SW620 cells incubated for 48 hrs by sulforhodamine B assay; details: SW-620, 48 h
SF-295 = test: Growth inhibition of human SF295 cells incubated for 48 hrs by sulforhodamine B assay; details: SF-295, 48 h
Malme-3M = test: Growth inhibition of human MALME-3M cells incubated for 48 hrs by sulforhodamine B assay
SK-OV-3 = test: Growth inhibition of human SKOV3 cells incubated for 48 hrs by sulforhodamine B assay; details: SK-OV-3, 48 h; for CC50: read-out: LC50 (the source's name)
TK-10 = test: Growth inhibition of human TK10 cells incubated for 48 hrs by sulforhodamine B assay; details: TK-10, 48 h
NCI-H322M = test: Growth inhibition of human NCI-H322M cells incubated for 48 hrs by sulforhodamine B assay
UO-31 = test: Growth inhibition of human UO31 cells incubated for 48 hrs by sulforhodamine B assay; details: UO-31, 48 h
SR = test: Growth inhibition of human SR cells incubated for 48 hrs by sulforhodamine B assay
A498 = test: Growth inhibition of human A498 cells incubated for 48 hrs by sulforhodamine B assay; details: A498, 48 h; for CC50: read-out: LC50 (the source's name)
KM12 = test: Growth inhibition of human KM12 cells incubated for 48 hrs by sulforhodamine B assay; details: KM12, 48 h
NCI-H23 = test: Growth inhibition of human NCI-H23 cells incubated for 48 hrs by sulforhodamine B assay; details: NCI-H23, 48 h
786-0 = test: Growth inhibition of human 786-0 cells incubated for 48 hrs by sulforhodamine B assay; details: 786-0, 48 h
UACC-257 = test: Growth inhibition of human UACC257 cells incubated for 48 hrs by sulforhodamine B assay; details: UACC-257, 48 h; for CC50: read-out: LC50 (the source's name)
IGROV-1 = test: Growth inhibition of human IGROV1 cells incubated for 48 hrs by sulforhodamine B assay; details: IGROV-1, 48 h; for CC50: read-out: LC50 (the source's name)
RPMI-8226 = test: Growth inhibition of human RPMI8226 cells incubated for 48 hrs by sulforhodamine B assay; details: RPMI-8226, 48 h; for CC50: read-out: LC50 (the source's name)
OVCAR-8 = test: Growth inhibition of human OVCAR8 cells incubated for 48 hrs by sulforhodamine B assay; details: OVCAR-8, 48 h
HOP-92 = test: Growth inhibition of human HOP92 cells incubated for 48 hrs by sulforhodamine B assay; details: HOP-92, 48 h
U-251 = test: Growth inhibition of human U251 cells incubated for 48 hrs by sulforhodamine B assay; details: U-251, 48 h
NCI-H522 = test: Growth inhibition of human NCI-H522 cells incubated for 48 hrs by sulforhodamine B assay; details: NCI-H522, 48 h; for CC50: read-out: LC50 (the source's name)
DU-145 = test: Growth inhibition of human DU145 cells incubated for 48 hrs by sulforhodamine B assay; details: DU-145, 48 h; for CC50: read-out: LC50 (the source's name)
[1] = read-out: LC50 (the source's name)

SMILES: CCCCOc1nc2ccccc2cc1C1CNC(=O)c2ccccc2N1 (stereo unspecified)
- GI50 (MDA-MB-468): 1.61 µM
- TGI (MDA-MB-468): 7.34 µM
- CC50 (MDA-MB-468; [1]): > 100 µM
- GI50 (CCRF-CEM): 2.95 µM
- LC50 (concentration killing 50% of cells) (CCRF-CEM): > 100 µM
- TGI (CCRF-CEM): 24.9 µM
- GI50 (SK-MEL-5): 2.34 µM
- TGI (SK-MEL-5): 20 µM
- CC50 (SK-MEL-5): > 100 µM
- GI50 (MCF7): 1.73 µM
- TGI (MCF7): 16.1 µM
- CC50 (MCF7; [1]): > 100 µM
- GI50 (SN12C): 3.34 µM
- TGI (SN12C): 18.2 µM
- CC50 (SN12C; [1]): 90.6 µM
- GI50 (CAKI-1): 2.83 µM
- TGI (CAKI-1): 34.4 µM
- CC50 (CAKI-1): > 100 µM
- GI50 (MDA-MB-231): 3.83 µM
- TGI (MDA-MB-231): 20.9 µM
- CC50 (MDA-MB-231; [1]): 90.3 µM
- GI50 (HOP-62): 2.99 µM
- LC50 (HOP-62): 76.7 µM
- TGI (HOP-62): 17.4 µM
- GI50 (LOX IMVI): 2.9 µM
- TGI (LOX IMVI): 14.4 µM
- CC50 (LOX IMVI; [1]): 47.3 µM
- GI50 (SNB-19): 6.13 µM
- TGI (SNB-19): 75.3 µM
- CC50 (SNB-19; [1]): > 100 µM
- GI50 (EKVX): 4.76 µM
- TGI (EKVX): 82.8 µM
- CC50 (EKVX; [1]): > 100 µM
- GI50 (HCT-116): 1.84 µM
- TGI (HCT-116): 6.26 µM
- CC50 (HCT-116; [1]): 44.7 µM
- GI50 (M14): 1.54 µM
- TGI (M14): 11.8 µM
- CC50 (M14; [1]): 92.2 µM
- GI50 (SF-268): 4.14 µM
- TGI (SF-268): > 100 µM
- CC50 (SF-268; [1]): > 100 µM
- GI50 (HCC 2998): 3.58 µM
- TGI (HCC 2998): 26.7 µM
- CC50 (HCC 2998; [1]): > 100 µM
- GI50 (OVCAR-3): 1.31 µM
- TGI (OVCAR-3): 3.53 µM
- CC50 (OVCAR-3; [1]): 9.4 µM
- GI50 (RXF 393): 2.5 µM
- TGI (RXF 393): 12.1 µM
- CC50 (RXF 393; [1]): 75.4 µM
- GI50 (A549): 3.64 µM
- LC50 (A549): 53 µM
- TGI (A549): 14.5 µM
- GI50 (SW-620): 2.19 µM
- TGI (SW-620): 27.1 µM
- CC50 (SW-620; [1]): > 100 µM
- GI50 (SF-295): 1.4 µM
- TGI (SF-295): 9.82 µM
- CC50 (SF-295; [1]): 52.4 µM
- GI50 (Malme-3M): 3.58 µM
- TGI (Malme-3M): 27 µM
- CC50 (Malme-3M; [1]): 92 µM
- GI50 (SK-OV-3): 2.38 µM
- TGI (SK-OV-3): 9.96 µM
- CC50 (SK-OV-3): > 100 µM
- GI50 (TK-10): 4.93 µM
- TGI (TK-10): 21.6 µM
- CC50 (TK-10; [1]): 73.8 µM
- GI50 (NCI-H322M): 4.5 µM
- TGI (NCI-H322M): 45.5 µM
- CC50 (NCI-H322M; [1]): > 100 µM
- GI50 (UO-31): 2.41 µM
- TGI (UO-31): 20.9 µM
- CC50 (UO-31; [1]): 67.2 µM
- GI50 (SR): 1.26 µM
- LC50 (SR): > 100 µM
- TGI (SR): 10.7 µM
- GI50 (A498): 0.39 µM
- TGI (A498): 4.7 µM
- CC50 (A498): > 100 µM
- GI50 (KM12): 3.3 µM
- TGI (KM12): 80.6 µM
- CC50 (KM12; [1]): > 100 µM
- GI50 (NCI-H23): 5.16 µM
- TGI (NCI-H23): 36.8 µM
- CC50 (NCI-H23; [1]): > 100 µM
- GI50 (786-0): 2.84 µM
- TGI (786-0): 10.4 µM
- CC50 (786-0; [1]): 4.65 µM
- GI50 (UACC-257): 8.16 µM
- TGI (UACC-257): > 100 µM
- CC50 (UACC-257): > 100 µM
- GI50 (IGROV-1): 4.49 µM
- TGI (IGROV-1): 23.9 µM
- CC50 (IGROV-1): 98.5 µM
- GI50 (RPMI-8226): 2.86 µM
- TGI (RPMI-8226): 25.1 µM
- CC50 (RPMI-8226): > 100 µM
- GI50 (OVCAR-8): 3.45 µM
- TGI (OVCAR-8): 16.1 µM
- CC50 (OVCAR-8; [1]): > 100 µM
- GI50 (HOP-92): 1.92 µM
- TGI (HOP-92): 22.6 µM
- CC50 (HOP-92; [1]): > 100 µM
- GI50 (U-251): 3.03 µM
- TGI (U-251): 13.7 µM
- CC50 (U-251; [1]): 50.1 µM
- GI50 (NCI-H522): 2.39 µM
- TGI (NCI-H522): 25.8 µM
- CC50 (NCI-H522): > 100 µM
- GI50 (DU-145): 3.16 µM
- TGI (DU-145): 12.9 µM
- CC50 (DU-145): > 100 µM

SMILES: COc1cccc2c1C(=O)c1c(O)c3c(c(O)c1C2=O)C[C@@](O)(C(=O)CO)C[C@@H]3O[C@H]1C[C@H](N)[C@H](O)[C@H](C)O1 [DOXORUBICIN]
- GI50 (MDA-MB-468): 0.05 µM
- GI50 (CCRF-CEM): 0.08 µM
- GI50 (SK-MEL-5): 0.14 µM
- CC50 (SK-MEL-5): 8.15 µM
- GI50 (MCF7): 0.04 µM
- GI50 (SN12C): 0.07 µM
- GI50 (CAKI-1): 0.95 µM
- CC50 (CAKI-1): 100 µM
- GI50 (MDA-MB-231): 0.51 µM
- GI50 (HOP-62): 0.07 µM
- GI50 (LOX IMVI): 0.07 µM
- GI50 (SNB-19): 0.04 µM
- GI50 (EKVX): 0.41 µM
- GI50 (HCT-116): 0.08 µM
- GI50 (M14): 0.18 µM
- GI50 (SF-268): 0.1 µM
- GI50 (HCC 2998): 0.26 µM
- GI50 (OVCAR-3): 0.39 µM
- GI50 (RXF 393): 0.1 µM
- GI50 (A549): 0.06 µM
- GI50 (SW-620): 0.09 µM
- GI50 (SF-295): 0.1 µM
- GI50 (Malme-3M): 0.12 µM
- GI50 (SK-OV-3): 0.22 µM
- CC50 (SK-OV-3): 100 µM
- GI50 (TK-10): 0.38 µM
- GI50 (NCI-H322M): 0.54 µM
- GI50 (UO-31): 0.49 µM
- GI50 (SR): 0.03 µM
- GI50 (A498): 0.1 µM
- CC50 (A498): 1.9 µM
- GI50 (KM12): 0.27 µM
- GI50 (NCI-H23): 0.15 µM
- GI50 (786-0): 0.13 µM
- GI50 (UACC-257): 0.12 µM
- CC50 (UACC-257): 0.74 µM
- GI50 (IGROV-1): 0.17 µM
- CC50 (IGROV-1): 100 µM
- GI50 (RPMI-8226): 0.08 µM
- CC50 (RPMI-8226): 100 µM
- GI50 (OVCAR-8): 0.1 µM
- GI50 (HOP-92): 0.1 µM
- GI50 (U-251): 0.04 µM
- GI50 (NCI-H522): 0.03 µM
- CC50 (NCI-H522): 2.8 µM
- GI50 (DU-145): 0.11 µM
- CC50 (DU-145): 100 µM
